Reference: paper PMC9721424, “Novel N-methylsulfonyl-indole derivatives: biological activity and COX-2/5-LOX inhibitory effect with improved gastro protective profile and reduced cardio vascular risks” (Journal of Enzyme Inhibition and Medicinal Chemistry, 2022)
“And” between values parts separate entries of the source, which are not always exact repeats. Identical values can stand only once. Like-named read-outs stand apart in the source and are kept apart here.

Key:
5-LOX enzyme = biological target: T1, 5-LOX enzyme (Homo sapiens, UniProt P09917); test: 5-LOX inhibition, Human Lipoxygenase Inhibitor Screening Assay (EIA) kit; format: biochemical
T1 construct: purchased Cayman Chemical K980-100
T1 sequence (P09917 1-674): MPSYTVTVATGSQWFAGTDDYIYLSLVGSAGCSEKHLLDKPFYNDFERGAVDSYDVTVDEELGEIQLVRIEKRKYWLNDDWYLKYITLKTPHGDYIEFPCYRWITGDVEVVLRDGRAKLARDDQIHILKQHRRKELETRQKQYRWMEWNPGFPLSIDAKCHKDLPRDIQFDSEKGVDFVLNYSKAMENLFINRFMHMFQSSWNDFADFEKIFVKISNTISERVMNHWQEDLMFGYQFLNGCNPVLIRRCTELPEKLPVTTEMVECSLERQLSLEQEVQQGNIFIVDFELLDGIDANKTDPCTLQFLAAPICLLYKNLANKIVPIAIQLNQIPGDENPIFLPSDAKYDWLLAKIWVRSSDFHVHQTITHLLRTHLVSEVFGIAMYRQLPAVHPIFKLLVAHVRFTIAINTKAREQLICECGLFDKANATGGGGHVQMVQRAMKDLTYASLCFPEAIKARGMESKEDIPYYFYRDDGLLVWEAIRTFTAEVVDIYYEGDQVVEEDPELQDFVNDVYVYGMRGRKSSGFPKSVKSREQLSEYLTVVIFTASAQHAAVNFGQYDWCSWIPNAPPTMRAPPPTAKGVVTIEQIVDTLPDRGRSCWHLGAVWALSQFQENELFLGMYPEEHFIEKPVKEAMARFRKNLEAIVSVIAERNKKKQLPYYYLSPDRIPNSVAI
Experimental: The ability of the test compounds to inhibit the 5-LOX enzyme (IC50 value, μM) was detected using the Cayman Human Lipoxygenase Inhibitor Screening Assay (EIA) kit (catalog no. K980-100, Cayman Chemical). The IC50 values of test compounds were measured in µM according to the manufacturer’s instructions and reported method.

COX-2 = biological target: T2, COX-2 (Ovis aries, UniProt P79208); test: COX-2 inhibition, enzyme immune assay (EIA) kit; format: biochemical, ovine; conditions: for S.I (IC50 COX-1/IC50 COX-2): COX-2 selectivity index; for SI: lab report, COX1/COX2
T2 sequence (P79208 17-603): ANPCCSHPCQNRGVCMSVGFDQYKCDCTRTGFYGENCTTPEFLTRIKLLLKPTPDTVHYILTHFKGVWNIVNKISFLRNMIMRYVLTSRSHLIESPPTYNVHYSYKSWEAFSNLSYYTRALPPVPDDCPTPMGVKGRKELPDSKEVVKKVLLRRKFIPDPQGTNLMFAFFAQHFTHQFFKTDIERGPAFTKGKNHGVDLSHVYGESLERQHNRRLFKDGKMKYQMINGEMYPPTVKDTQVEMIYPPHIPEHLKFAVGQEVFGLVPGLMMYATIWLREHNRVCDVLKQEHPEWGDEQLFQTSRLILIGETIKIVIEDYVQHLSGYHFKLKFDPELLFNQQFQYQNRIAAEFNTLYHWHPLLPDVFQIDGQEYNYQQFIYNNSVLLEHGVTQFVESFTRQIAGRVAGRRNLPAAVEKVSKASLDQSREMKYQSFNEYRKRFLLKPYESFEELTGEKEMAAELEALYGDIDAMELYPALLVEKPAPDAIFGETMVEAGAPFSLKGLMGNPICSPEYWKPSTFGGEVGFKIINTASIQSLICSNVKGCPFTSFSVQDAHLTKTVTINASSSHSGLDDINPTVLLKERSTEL

ovine COX-1 = biological target: T3, ovine COX-1 (Ovis aries, UniProt P05979); test: COX-1 inhibition, enzyme immune assay (EIA) kit
T3 sequence (P05979 25-600): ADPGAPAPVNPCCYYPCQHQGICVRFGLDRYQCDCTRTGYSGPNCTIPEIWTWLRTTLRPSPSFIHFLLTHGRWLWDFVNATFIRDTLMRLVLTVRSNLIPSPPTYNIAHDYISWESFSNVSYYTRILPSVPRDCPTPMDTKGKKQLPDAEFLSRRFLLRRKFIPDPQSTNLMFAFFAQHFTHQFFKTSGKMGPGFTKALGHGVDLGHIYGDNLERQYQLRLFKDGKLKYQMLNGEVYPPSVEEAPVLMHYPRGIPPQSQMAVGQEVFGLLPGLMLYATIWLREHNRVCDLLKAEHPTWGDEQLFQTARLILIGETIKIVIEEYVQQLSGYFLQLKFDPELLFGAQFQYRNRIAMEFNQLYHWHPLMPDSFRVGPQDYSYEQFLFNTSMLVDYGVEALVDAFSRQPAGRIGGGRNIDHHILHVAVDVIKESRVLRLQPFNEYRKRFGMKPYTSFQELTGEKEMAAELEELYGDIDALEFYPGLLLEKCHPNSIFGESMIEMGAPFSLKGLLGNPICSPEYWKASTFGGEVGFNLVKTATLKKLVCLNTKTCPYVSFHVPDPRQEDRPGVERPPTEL
Description: Colorimetric enzyme immunoassay (EIA) kits were done to screen for the isozyme-specific inhibition.

[1] = system: Escherichia coli (E. coli) (ATCC 25922); test: Disc diffusion antimicrobial screening, E. coli; format: cell-based; conditions: for antibacterial activity against E. coli: 100 µg/disc
Experimental: All compounds were screened for their antimicrobial activity at the Microbiology and Immunology Department, Faculty of Pharmacy, Beni-Suef University. The antimicrobial activity screening was carried out using the disc diffusion method, as described earlier, with some adjustments.
For each indicator microbe, a solution of half McFarland turbidity was prepared in sterile saline, followed by surface streaking of the strains on Mueller-Hinton agar with a sterile cotton swab. Then, sterile filter paper discs (5 mm diameter) preloaded with 100 µg of each compound were applied to the surface of the pre-inoculated plates. Then, the plates were chilled at 4 °C for 100 min before being incubated overnight at the proper temperature for microbial growth. Finally, the diameter of the inhibition zones around each disc was measured to evaluate the antimicrobial activity of the compounds. Ciprofloxacin was used as a standard antibacterial agent at a concentration of 20 µg/disc. Furthermore, DMSO-loaded discs were used as a negative control.

stomach = test: Histopathological examination of stomach; format: in vivo, rats; conditions: rats, H&E stain
Experimental: In brief, the stomachs of each animal group’s rat were fixed in 10% neutral buffered formalin for 48 h. The sections were then dehydrated, cleared, fixed in paraffin, sectioned ([…]), and stained with H&E stain.

| SMILES | melting point [°C] | IC50 (5-LOX enzyme) [µM] | 5-LOX %inh (5-LOX enzyme; conc 0.1 (μM)) [%] | 5-LOX %inh (5-LOX enzyme; conc 1 (μM)) [%] | 5-LOX %inh (5-LOX enzyme; conc 10 (μM)) [%] | 5-LOX %inh (5-LOX enzyme; conc 100 (μM)) [%] | IC50 (5-LOX enzyme; lab report) [µM] | S.I (IC50 COX-1/IC50 COX-2) (COX-2) | SI (COX-2) | IC50 (ovine COX-1; IC50 COX-1) [µM] | COX1 %inh (ovine COX-1; conc 0.1 (μM)) [%] | COX1 %inh (ovine COX-1; conc 1 (μM)) [%] | COX1 %inh (ovine COX-1; conc 10 (μM)) [%] | COX1 %inh (ovine COX-1; conc 100 (μM)) [%] | antibacterial activity against E. coli [1] | stomach histopathology finding (stomach) | IC50 (ovine COX-1; IC50 COX1, lab report / text printing uM) [µM] | zone of inhibition at 100 µg/disc ([1]; Escherichia coli, ATCC25922, read-out: diameters of inhibition zones) [mm] |
| --- | --- | --- | --- | --- | --- | --- | --- | --- | --- | --- | --- | --- | --- | --- | --- | --- | --- | --- |
| COc1ccc(NC(=S)N/N=C/c2cn(S(C)(=O)=O)c3ccccc23)cc1 [Compound 4e, (E)-N-(4-Methoxyphenyl)-2{[1-(methylsulfonyl)-1H-indol 3yl]methylene}hydrazinecarbothioamide] | 214 to 216 | 4.08 ± 0.22 | 17.9 | 30.9 | 55.7 | 85 | 4.08 ± 0.22 | 30.17 | 30.17 | 24.7 ± 0.7 | 5.87 | 14.4 | 28.6 | 73.5 | selective antibacterial activity | partial loss of mucous layer with mild superficial erosions | – | – |
| Cc1ccc(N2C(=O)CSC2=NN=Cc2cn(S(C)(=O)=O)c3ccccc23)cc1 [Compound 5d] | 271 to 273 | 1.1 ± 0.06 | 30.3 | 47.6 | 70.6 | 86.9 | 1.1 ± 0.06 | 8.59 and 8.60 | 8.596 | 5.79 ± 0.16 | 8.83 | 27.6 | 53.7 | 83.6 | exclusively exhibited bioactivity against E. coli | minimally disrupted mucous layer | 5.79 ± 0.16 | 8 to 15 |
